In US5278300A, “4,6-o-hydroxyphosphoryl-glucosamine derivatives” (priority 1990, dated 1994):
Where two headings read alike, the source gives them in different places.

Legend:
neutrophils = assay: O2^- production stimulating activity in neutrophils; type: cell-based, C3H/HeN mice; details: 10 μg/ml, 37° C., 60 minutes, FMLP 0.1 μM; for activation at 10 µg/mL: Mus musculus, Neutrophil, 1 h, read-out: Stimulation (%), O2^- production stimulating activity
Method: O2^- - production stimulating activity in neutrophils was evaluated utilizing the following experimental system [see J. Exp. Med., 160, 1656-1671. (1984)]. To the peritoneal cavity of C3H/HeN mice (male, 8-9 weeks old), physiological saline containing 0.2% (w/v) casein was administered. Three hours later, peritoneal exudate cells (90% or more of which are neutrophils) were collected. These cells (1.7×10^6 cells/ml/tube) were incubated in the presence of the compound (10 μg/ml) according to the present invention at 37° C. for 60 minutes. After addition of 80 μM of cytochrome C and 0.1 μM of formyl-methionyl-leucylphenylalanine (FMLP), the mixture was incubated in the presence of or in the absence of superoxide dismutase (SOD) at 37° C. for 10 minutes. Then, SOD-inhibitable cytochrome C reduction was estimated from the difference between the absorbances at 550 nm and 541.7 nm, and from the molar absorption coefficient (16.5×10^3).O2^- production-stimulating activity in terms of Stimulation % was calculated according to the following formula: [formula]

spleen cells = assay: Mitogen activity (3H-thymidine incorporation in spleen cells); type: cell-based, C3H/HeN mice; details: 48 hours culture, given concentration
Method: The mitogen activity of the compounds according to the present invention was evaluated by utilizing the following experimental system [see Eur. J. Immunol., 14, 109-114. (1984)].
The spleens of C3H/HeN mice (males, 6-10-weeks old) were isolated in an aseptic manner. The spleen tissue was loosened in Dulbecco's modified Eagle medium (DMEM) and then subjected to a stainless mesh in order to filter the spleen cells. Next, erythrocytes contained in the collected cells were hemolyzed, and the obtained cells were suspended in RPMI 1640 medium containing 5% FBS for subsequent use.
Evaluation of mitogenic activity of the compounds according to the present invention was conducted by measuring the amount of ^3 H-thymidine incorporated into the cells during culturing of the cells which were treated with the compounds according to the present invention. First, the spleen cells were transferred to a 96-well plate at 5×10^5 cells/well (100 μl). To each well, the compound according to the present invention at a given concentration (100 μl) was added, and the obtained solution in each well was cultured under 5% CO2 at 37° C. for 48 hours. After that, ^3 H-thymidine was added at 1 μCi/well (50 μl), followed by culturing for four hours. The obtained cells were washed with phosphate buffered saline (PBS), and the amount of ^3 H-thymidine incorporated into the cells (the amount of radioactivity) was determined using a liquid scintillation counter. The result was shown by calculating the following Stimulation Index: [formula]

[1] = system: colony stimulating factor (CSF); assay: Colony stimulating factor (CSF)-inducing activity; type: in vivo, C57BL mice; details: 5 μg caudal vein, serum after six hours, colonies after seven days
Method: By utilizing the following experimental protocol, in vivo colony stimulating factor (CSF) inducing activity of the compounds according to the present invention was evaluated [see Immunology, 21, 427-436. (1971)].
5 μg of the present compounds according to the present invention were administered to the caudal vein of C57BL mice (male, 8-10-weeks old). After six hours, the blood was sampled from the plexus venous orbitalis of said mice. This blood was allowed to stand at 4° C. for two hours for sufficient coagulation, and then centrifuged at 1500×g. The resultant supernatant solution was collected for use as a CSF-containing serum sample.
Separately, from the femora of mice which were the same series as the mice used for sampling the serum, the bone marrow cells were sampled. Specifically, both ends of the femora isolated in an aseptic manner were cut, and an injection needle was inserted into one end to aspirate the bone marrow cells into a culture solution (DMEM). The obtained cell suspension was sufficiently stirred, washed with the culture solution several times, and suspended in the culture solution again.
Next, the cell culture prepared as described was adjusted to a final concentration of 10^5 cells/ml by utilizing a medium (DMEM) containing 0.3% agar, 25% horse serum, and 50 μM 2-mercaptoethanol. To this solution, 0.1 ml of said serum sample which had been diluted to 1/3 with said DMEM medium was added, and the obtained solution was transferred to a culture plate of 35 mm diameter. Then, the resultant culture solution was cultured under 7% CO2 at 37° C. for seven days to form colonies. Colonies as containing at least 20 unseparated cells were counted, and the numbers thus obtained were taken as indicating the CSF inducing activity of the compounds according to the present invention.

[2] = Lethal toxicity in galactosamine-sensitized mice; type: in vivo, C57BL mice; details: galactosamine-sensitized mice; intravenous; D-galactosamine/HCl 10 mg/mouse intraperitoneally; observed to seventh day; read-out: LD50 (galactosamine load)
Method: (§1) Lethal toxicity in galactosamine-sensitized mice was evaluated by utilizing the following experimental system [see J. Biochem., 98, 395-406. (1985)].
(§2) To C57BL mice (male, 7-weeks old), 10 mg/mouse of D-galactosamine/HCl was intraperitoneally administered. Immediately after that, the compound of this invention was intravenously administered. After these administrations, the general condition of the mice were observed every one hour for seven hours, and every day from the following day to the seventh day.

[3] = system: galactosamine-sensitized mice; assay: Lethal toxicity in galactosamine-sensitized mice; type: in vivo, C57BL mice; details: intravenous; D-galactosamine/HCl 10 mg/mouse intraperitoneally; observed to seventh day; 10080 min
Method: as §1, §2

TNF = assay: TNF-producing activity; type: in vivo, ICR mice; details: 10 μg/mice i.v., serum at 90 minutes, Corynebacterium parvum-primed, L929 cytotoxicity assay
Method: TNF-producing activity was evaluated utilizing the following experimental system.
The first stimulating agent, 5% Corynebacterium parvum suspension (0.2 ml physiological saline solution), was intravenously administered to ICR mice (female, 6-7 week-aged). Nine days later, the second stimulating agent, the compound of the present invention, was intravenously administered to the same mice at 10 μg/mice. In 90 minutes, 0.5-1 ml of blood was taken from the retro orbital plexus. The obtained blood was allowed to clot at room temperature for five to six hours, and centrifuged at 7200×g for five minutes to separate the serum. The obtained serum was incubated at 56° C. for 30 minutes for inactivation before use in the following experiment.
TNF activity in the serum was measured via a cytotoxicity assay employing L929 cells. […] After 48 hours incubation at 37° C., the viable cells were fixed with methanol. These cells were then stained with 0.2% crystal violet, and the dye was extracted with 1% SDS (sodium dodecyl sulphate). Next, the absorbance at 550 nm was measured. Finally, the cytotoxicity ratio (%) was calculated according to the following formula, and the reciprocal of the dilution of the serum showing 50% cytotoxicity was determined for the TNF titer in the serum (U/ml).
[OD550 (medium alone) - OD550 (serum obtained by
administering compounds of the invention)] ×

| Compound | activation at 10 µg/mL (neutrophils; Experiment 2) | Stimulation Index (spleen cells; Experiment 2) | The Number of Colony Formed/The number of Bone Marrow Cells (10^5) ([1]; Experiment 2) | LD50 at 168 h [2] | LD50 (galactosamine load) [3] | Stimulation (%), O2^- production stimulating activity (neutrophils; Experiment 2) | activation at 10 µg/mL (neutrophils; Experiment 1) | The Amount of TNF in the Serum (TNF; Experiment 1) | The Amount of TNF in the Serum (TNF; Experiment 2) | Stimulation Index (spleen cells; Experiment 1) | The Number of Colony Formed/The number of Bone Marrow Cells (10^5) ([1]; Experiment 1) |
| --- | --- | --- | --- | --- | --- | --- | --- | --- | --- | --- | --- |
| CCCCCCCCCCCCCCC(CCCCCCCCCCCC)C(=O)O[C@H]1[C@@H]2OP(=O)(O)OC[C@H]2OC[C@@H]1NC(=O)C[C@H](O)CCCCCCCCCCC (stereo partly drawn) [Example 4, 1,5-Anhydro-2-deoxy-3-O-{(2RS)-2-dodecylhexadecanoyl}-4,6-O-hydroxyphosphoryl-2-{(3R)-3-hydroxytetradecanamido}-D-glucitol] | 55% | 20.7 | 66 Colony Formed/10^5 Bone Marrow | 0.0711 mg/kg | – | – | – | – | – | – | – |
| CCCCCCCCCCCCCC(=O)O[C@H](CCCCCCCCCCC)CC(=O)O[C@@H]1[C@@H](NC(=O)C[C@@H](CCCCCCCCCCC)OC(=O)CCCCCCCCCCC)[C@H](OC[C@H]2O[C@H](OP(=O)(O)O)[C@H](NC(=O)C[C@H](O)CCCCCCCCCCC)[C@@H](OC(=O)C[C@H](O)CCCCCCCCCCC)[C@@H]2O)O[C@H](CO)[C@H]1OP(=O)(O)O [Lipid A] | – | – | – | – | 0.0003 mg/kg | – | – | – | – | – | – |
| CCCCCCCCCCCCCC(=O)O[C@H](CCCCCCCCCCC)CC(=O)O[C@H]1[C@H](OP(=O)(O)O)[C@@H](CO)OC(O)[C@@H]1NC(=O)C[C@H](O)CCCCCCCCCCC (stereo partly drawn) [Control, 2-deoxy-2[(3R)-3-hydroxytetradecanamide]-4-O-phosphono-3-O-[(3R)-3-tetradecanoyloxytetradecanoyl]-D-glucopyranose] | – | 8.4 | 53 Colony Formed/10^5 Bone Marrow | 0.003 mg/kg | – | 60% | 60% | 158000 U/ml | 80000 U/ml | 15.8 | 89 Colony Formed/10^5 Bone Marrow |
| CCCCCCCCCCCCCCC(OC(=O)CCCCCCCCCCC)C(=O)O[C@H]1[C@@H]2OP(=O)(O)OC[C@H]2OC[C@@H]1NC(=O)C[C@H](O)CCCCCCCCC (stereo partly drawn) [Example 2, 1,5-Anhydro-2-deoxy-3-O-{(2RS)-2-dodecanoyloxyhexadecanoyl}-2-{(3R)-3-hydroxydodecanamido}-4,6-O-hydroxyphosphoryl-D-glucitol] | – | – | – | – | – | – | – | – | 102000 U/ml | – | – |
| CCCCCCCCCCCCCC(=O)O[C@H](CCCCCCCCCCCC)C(=O)O[C@H]1[C@@H]2OP(=O)(O)OC[C@H]2OC[C@@H]1NC(=O)C[C@H](O)CCCCCCCCCCC [Example 1, 1,5-Anhydro-2-deoxy-4,6-O-hydroxyphosphoryl-2-{(3R)-3-hydroxytetradecanamido}-3-O-{(2R)-2-tetradecanoyloxytetradecanoyl}-D-glucitol] | – | – | – | 0.0313 mg/kg | – | – | 55% | 133000 U/ml | – | 32.1 | 153 Colony Formed/10^5 Bone Marrow |
